{"source": "patent US12502395B2", "about": "“Progestin/testosterone transdermal gel” (The Population Council, Inc., priority 2022, dated 2025)", "origin": "cited, not measured here", "key": {"[1]": {"system": "androgenic, estrogenic, or glucocorticoid actions", "conditions": "at up to x2000 the therapeutic levels"}, "[2]": {"conditions": "most common adverse event; 100 mg/day of T"}, "pregnancy": {"system": "pregnancy", "conditions": "weekly intramuscular injection of 200 mg/week for 12 months"}}, "data": [{"smiles": "C=C1C[C@H]2[C@@H]3CCC4=CC(=O)CC[C@@H]4[C@H]3CC[C@]2(C)[C@@]1(OC(C)=O)C(C)=O", "note": "[NES, 16-methylene-17α-acetoxy-19-norpregn-4-ene-3,20-dione]", "values": [{"measurement": "Androgenic, estrogenic, or glucocorticoid actions", "setting": "[1]", "value": "does not carry androgenic, estrogenic, or glucocorticoid actions"}]}, {"smiles": "C[C@]12CC[C@H]3[C@@H](CCC4=CC(=O)CC[C@@]43C)[C@@H]1CC[C@@H]2O", "note": "[T, Testosterone]", "values": [{"measurement": "Acne, % of subjects", "setting": "[2]", "value": 21, "unit": "%"}]}, {"smiles": "CCCCCCC(=O)O[C@H]1CC[C@H]2[C@@H]3CCC4=CC(=O)CC[C@]4(C)[C@H]3CC[C@]12C", "note": "[testosterone enanthate]", "values": [{"measurement": "Pregnancy rate", "setting": "pregnancy", "value": "0.8 pregnancy per 100 person-years of exposure"}]}]}
